Test results taken from patent publication US7396849B2, “4-(Condensed cyclicmethyl)-imidazole-2-thiones acting as α2 adrenergic agonists” (Allergan, Inc., priority 2004, dated 2008).

Tests used:
Type in all cases: cell-based
Conditions in all cases: NIH-3T3 cells, ratio of maximal effect to that of standard full agonist brimonidine, NA = not active below 10 micromolar
[1] = biological target: T1, alpha2B adrenergic receptors (Homo sapiens, UniProt P18089); test: RSAT assay (Receptor Selection and Amplification Technology), alpha2B
T1 construct: expressed in transfected cells; host or cells: NIH-3T3 cells
T1 sequence (P18089 1-450): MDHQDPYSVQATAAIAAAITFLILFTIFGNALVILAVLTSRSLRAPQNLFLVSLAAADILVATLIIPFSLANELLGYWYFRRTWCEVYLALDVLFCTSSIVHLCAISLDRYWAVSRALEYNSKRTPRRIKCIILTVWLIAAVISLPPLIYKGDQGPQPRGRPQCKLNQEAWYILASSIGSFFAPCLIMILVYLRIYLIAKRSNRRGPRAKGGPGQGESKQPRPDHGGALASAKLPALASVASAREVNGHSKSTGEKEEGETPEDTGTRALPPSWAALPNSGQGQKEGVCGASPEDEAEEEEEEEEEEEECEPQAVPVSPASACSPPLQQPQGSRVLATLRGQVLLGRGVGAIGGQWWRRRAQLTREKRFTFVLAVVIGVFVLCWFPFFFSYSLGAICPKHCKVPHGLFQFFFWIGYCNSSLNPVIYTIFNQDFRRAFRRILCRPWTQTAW
Source text: (§1) The imidazole-2-thione compounds of the invention are agonists of alpha2 adrenergic receptors. Many compounds of the invention are specific or selective agonists of alpha2B and/or to a lesser extent alpha2C adrenergic receptors, in preference over alpha2A adrenergic receptors. […] 76, pp. 308-311 (incorporated herein by reference) and is also described below. Another reference pertinent to this assay is Conklin et al. (1993) Nature 363:274-6, Receptor Selection and Amplification Technology (RSAT) assay, also incorporated herein by reference.
(§2) The RSAT assay measures a receptor-mediated loss of contact inhibition that results in selective proliferation of receptor-containing cells in a mixed population of confluent cells. The increase in cell number is assessed with an appropriate transfected marker gene such as β-galactosidase, the activity of which can be easily measured in a 96-well format. Receptors that activate the G protein, Gq, elicit this response. Alpha2 receptors, which normally couple to Gi, activate the RSAT response when coexpressed with a hybrid Gq protein that has a Gi receptor recognition domain, called Gq/i5.
(§3) NIH-3T3 cells are plated at a density of 2×10^6 cells in 15 cm dishes and maintained in Dulbecco's modified Eagle's medium supplemented with 10% calf serum. One day later, cells are cotransfected by calcium phosphate precipitation with mammalian expression plasmids encoding p-SV-β-galactosidase (5-10 μg), receptor (1-2 μg) and G protein (1-2 μg). 40 μg salmon sperm DNA may also be included in the transfection mixture. Fresh media is added on the following day and 1-2 days later, cells are harvested and frozen in 50 assay aliquots. Cells are thawed and 100 μl added to 100 μl aliquots of various concentrations of drugs in triplicate in 96-well dishes. Incubations continue 72-96 hr at 37° C. After washing with phosphate-buffered saline, β-galactosidase enzyme activity is determined by adding 200 μl of the chromogenic substrate (consisting of 3.5 mM o-nitrophenyl-β-D-galactopyranoside and 0.5% nonidet P-40 in phosphate buffered saline), incubating overnight at 30° C. and measuring optical density at 420 nm. The absorbance is a measure of enzyme activity, which depends on cell number and reflects a receptor-mediated cell proliferation. The efficacy or intrinsic activity is calculated as a ratio of the maximal effect of the drug to the maximal effect of a standard full agonist for each receptor subtype. Brimonidine, also called UK14304, the chemical structure of which is shown below, is used as the standard agonist for the alpha2A, alpha2B and alpha2C receptors.
(§4) The results of the RSAT assay with several exemplary compounds of the invention are disclosed in Table 1 above together with the chemical formulas of these examplary compounds. NA stands for “not active” at cohcentrations less than 10 micromolar.

[2] = biological target: T2, alpha2C adrenergic receptors (Homo sapiens, UniProt P18825); test: RSAT assay (Receptor Selection and Amplification Technology), alpha2C
T2 construct: expressed in transfected cells; host or cells: NIH-3T3 cells
T2 sequence (P18825 1-462): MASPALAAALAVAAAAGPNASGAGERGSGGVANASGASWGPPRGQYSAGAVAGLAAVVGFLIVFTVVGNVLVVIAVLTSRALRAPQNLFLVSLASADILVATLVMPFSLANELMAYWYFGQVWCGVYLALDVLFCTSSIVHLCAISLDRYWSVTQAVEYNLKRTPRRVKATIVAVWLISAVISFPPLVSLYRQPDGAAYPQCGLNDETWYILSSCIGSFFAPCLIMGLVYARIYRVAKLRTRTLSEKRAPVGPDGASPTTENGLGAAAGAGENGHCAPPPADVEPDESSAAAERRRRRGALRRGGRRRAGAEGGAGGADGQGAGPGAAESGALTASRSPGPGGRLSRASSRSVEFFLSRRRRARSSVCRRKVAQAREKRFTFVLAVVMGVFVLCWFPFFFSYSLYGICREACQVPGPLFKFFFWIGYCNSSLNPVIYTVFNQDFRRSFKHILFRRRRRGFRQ
Source text: as §1, §2, §3, §4

[3] = biological target: T3, alpha2A adrenergic receptors (Homo sapiens, UniProt P08913); test: RSAT assay (Receptor Selection and Amplification Technology), alpha2A
T3 construct: expressed in transfected cells; host or cells: NIH-3T3 cells
T3 sequence (P08913 1-465): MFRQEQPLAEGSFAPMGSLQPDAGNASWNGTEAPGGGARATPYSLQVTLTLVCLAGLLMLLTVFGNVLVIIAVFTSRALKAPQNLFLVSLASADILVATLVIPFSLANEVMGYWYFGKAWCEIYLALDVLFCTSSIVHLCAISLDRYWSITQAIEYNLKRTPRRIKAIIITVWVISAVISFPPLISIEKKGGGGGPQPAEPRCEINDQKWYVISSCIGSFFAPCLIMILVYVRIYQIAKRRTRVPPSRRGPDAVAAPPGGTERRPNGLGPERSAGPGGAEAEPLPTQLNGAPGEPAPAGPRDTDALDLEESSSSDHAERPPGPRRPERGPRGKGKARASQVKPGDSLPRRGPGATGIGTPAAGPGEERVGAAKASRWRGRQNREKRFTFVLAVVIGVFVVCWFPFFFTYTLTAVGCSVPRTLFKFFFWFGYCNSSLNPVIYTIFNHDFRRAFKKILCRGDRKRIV
Source text: as §1, §2, §3, §4

Structure (SMILES) | Intrinsic Activity Alpha 2B [1] | Intrinsic Activity Alpha 2C [2] | Intrinsic Activity Alpha 2A [3]
CC(c1c[nH]c(=S)[nH]1)c1cccc2ncccc12 (single isomer, unassigned; (+)) [Compound 14, (+)-4-(1-quinolin-5-yl-ethyl)-1,3-dihydro-imidazole-2-thione] | 0.86 |  | 
S=c1[nH]cc(Cc2cccc3c2OCCO3)[nH]1 [Compound 1, 4-(2,3-dihydro-benzo[1,4]dioxin-5-ylmethyl)-1,3-dihydro-imidazole-2-thione] | 0.94 | 0.56 | 0.44
CC(c1c[nH]c(=S)[nH]1)c1cccc2c1OCCO2 (stereo not drawn) [Compound 2, 4-[1-(2,3-dihydro-benzo[1,4]dioxin-5-yl)-ethyl]-1,3-dihydro-imidazole-2-thione] | 1.38 | 0.48 | 0.45
CC(c1c[nH]c(=S)[nH]1)c1cccc2c1OCO2 (stereo not drawn) [Compound 3, 4-(1-benzo[1,3]dioxol-4-yl-ethyl)-1,3-dihydro-imidazole-2-thione] | 0.97 | 0.77 | 0.56
CC(c1c[nH]c(=S)[nH]1)c1cccc2cccnc12 (stereo not drawn) [Compound 4, 4-(1-quinolin-8-yl-ethyl)-1,3-dihydro-imidazole-2-thione] | 1.03 | 0.62 | 0.80
S=c1[nH]cc(Cc2ccc3c(c2)OCO3)[nH]1 [Compound 5, 4-benzo[1,3]dioxol-5-ylmethyl-1,3-dihydro-imidazole-2-thione] | 1.05 |  | 
S=c1[nH]cc(Cc2cccc3ccccc23)[nH]1 [Compound 6, 4-naphthalen-1-ylmethyl-1,3-dihydro-imidazole-2-thione] | 0.73 | 0.55 | 0.48
S=c1[nH]cc(Cc2cccc3cccnc23)[nH]1 [Compound 8, 4-quinolin-8-ylmethyl-1,3-dihydro-imidazole-2-thione] | 1.01 | 0.75 | 0.93
S=c1[nH]cc(Cc2cccc3ncccc23)[nH]1 [Compound 9, 4-quinolin-5-ylmethyl-1,3-dihydro-imidazole-2-thione] | 0.74 |  | 
CC(c1c[nH]c(=S)[nH]1)c1cccc2ccccc12 (stereo not drawn) [Compound 10, 4-(1-naphthalen-1-yl-ethyl)-1,3-dihydro-imidazole-2-thione] | 1.21 |  | 0.52
S=c1[nH]cc(Cc2ccc3ccccc3c2)[nH]1 [Compound 11, 4-naphthalen-2-ylmethyl-1,3-dihydro-imidazole-2-thione] | 0.94 |  | 
CC(c1ccc2c(c1)OCCO2)c1c[nH]c(=S)[nH]1 (stereo not drawn) [Compound 12, 4-[1-(2,3-dihydro-benzo[1,4]dioxin-6-yl)-ethyl]-1,3-dihydro-imidazole-2-thione] | 1.15 |  | 0.54
S=c1[nH]cc(Cc2ccc3c(c2)CCCS3)[nH]1 [Compound 13, 4-thiochroman-6-ylmethyl-1,3-dihydro-imidazole-2-thione] | 0.95 |  | 
S=c1[nH]cc(Cc2cccc3nsnc23)[nH]1 [Compound-16, 4-benzo[1,2,5]thiadiazol-4-ylmethyl-1,3-dihydro-imidazole-2-thione] | 1.22 | 0.69 | 
CC(c1c[nH]c(=S)[nH]1)c1cccc2nsnc12 (stereo not drawn) [Compound-17, 4-(1-benzo[1,2,5]thiadiazol-4-yl-ethyl)-1,3-dihydro-imidazole-2-thione] | 0.98 |  | 
Cc1c(C(C)c2c[nH]c(=S)[nH]2)ccc2cccnc12 (stereo not drawn) [Compound-18, 4-[1-(8-methyl-quinolin-7-yl)-ethyl]-1,3-dihydro-imidazole-2-thione] | 1.05 | 0.41 | 0.80
